We go through 29 compounds from publication PMC8286840, “Identifying SARS-CoV-2 antiviral compounds by screening for small molecule inhibitors of Nsp3 papain-like protease” (Biochemical Journal, 2021).

For test [1], the target named is T1, SARS-CoV-2 PLpro (nsp3 1564–1878) (Severe acute respiratory syndrome coronavirus 2, UniProt P0DTD1). The experiment in a line: biochemical. Set-up: FRET-quenched peptide (Pro3) cleavage by PLpro, 10 min pre-incubation, slope over 20 min, normalised to no-compound control. The conditions noted are these: low concentration screen, read-out: % of control remaining.

The target of test [2] is T1, SARS-CoV-2 PLpro (nsp3 1564–1878). The experiment in a line: biochemical. Set-up: FRET-quenched peptide (Pro3) cleavage by PLpro, 10 min pre-incubation, slope over 20 min, normalised to no-compound control. Conditions: high concentration screen, read-out: % of control remaining.

Structures can show the parent of a compound that is named as a salt. Where two headings read alike, the source gives them in different places. Where a SMILES comes first, the peptide text is derived from it. [ ]: non-standard residue; d: D form. The star is where a group is joined. Hexanoyl = CCCCCC(=O)*; Ahx = NCCCCCC(=O)O

Consider `C[C@]12CCC3=C4CCC(=O)C=C4CC[C@H]3[C@@H]1CC[C@@]2(O)CC#N` [Dienogest], for which the remaining activity at 1.25 µM in test [1] (Well no.=5145) came to 102%. In addition, in test [2] (Well no.=5145), the remaining activity at 3.75 µM amounted to 102%.

With `O=C(O)CN(CCN(CC(=O)O)CC(=O)O)CCN(CC(=O)O)CC(=O)O` [Diethylenetriaminepentaacetic acid], in test [1] (Well no.=532), the remaining activity at 1.25 µM stood at 100%. For the same compound, the remaining activity at 3.75 µM in test [2] (Well no.=532) stood at 97.9%.

Regarding `O=C(O)c1cc(-c2ccc(F)cc2F)ccc1O` [Diflunisal], the remaining activity at 1.25 µM in test [1] (Well no.=1984) was 102%. For the same compound, the remaining activity at 3.75 µM in test [2] (Well no.=1984) was 102%.

Regarding `C[C@H]1O[C@@H](O[C@H]2[C@@H](O)C[C@H](O[C@H]3[C@@H](O)C[C@H](O[C@H]4CC[C@@]5(C)[C@H](CC[C@@H]6[C@@H]5CC[C@]5(C)[C@@H](C7=CC(=O)OC7)CC[C@]65O)C4)O[C@@H]3C)O[C@@H]2C)C[C@H](O)[C@@H]1O` [Digitoxin], the remaining activity at 1.25 µM in test [1] (Well no.=3463) was 104%. The remaining activity at 3.75 µM in test [2] (Well no.=3463) was 105%.

Turning to `CCCCCC(=O)N[C@@H](Cc1ccc(O)cc1)C(=O)N[C@H](C(=O)NCCCCCC(N)=O)[C@@H](C)CC` [Dihexa] (Hexanoyl-Tyr-Ile-[Ahx]-NH2), the remaining activity at 1.25 µM in test [1] (Well no.=8646) amounted to 98.6%. The remaining activity at 3.75 µM in test [2] (Well no.=8646) came out at 98.4%.

As to `CCCCC/C=C\C/C=C\C/C=C\CCCCCCC(=O)O` [Dihomo-γ-linolenic acid], the remaining activity at 1.25 µM in test [1] (Well no.=4317) is 99%. In test [2] (Well no.=4317), the remaining activity at 3.75 µM was 99.1%.

For `CO[C@H]1CC=C2CCN3CCC4=C(CC(=O)OC4)[C@]23C1` [Dihydro-beta-erythroidine hydrobromide], the remaining activity at 1.25 µM in test [1] (Well no.=690) amounted to 88.8%. In addition, in test [2] (Well no.=690), the remaining activity at 3.75 µM came out at 88.6%.

For the compound `CC(C)[C@@]1(NC(=O)[C@@H]2C[C@@H]3c4cccc5[nH]cc(c45)C[C@H]3N(C)C2)O[C@@]2(O)[C@@H]3CCCN3C(=O)[C@H](Cc3ccccc3)N2C1=O` [Dihydroergocristine mesylate], in test [1] (Well no.=3231), the remaining activity at 1.25 µM worked out at 108%. Also, the remaining activity at 3.75 µM in test [2] (Well no.=3231) was 105%.

As to `CC(C)[C@@]1(NC(=O)[C@@H]2C[C@@H]3c4cccc5[nH]cc(c45)C[C@H]3N(C)C2)O[C@@]2(O)[C@@H]3CCCN3C(=O)[C@H](Cc3ccccc3)N2C1=O` [Dihydroergocristine methanesulfonate], in test [1] (Well no.=404), the remaining activity at 1.25 µM amounted to 102%. The remaining activity at 3.75 µM in test [2] (Well no.=404) was found to be 101%.

Regarding `CC(C)[C@@]1(NC(=O)[C@@H]2C[C@@H]3c4cccc5[nH]cc(c45)C[C@H]3N(C)C2)O[C@@]2(O)[C@@H]3CCCN3C(=O)[C@H](Cc3ccccc3)N2C1=O` [Dihydroergocristine], the remaining activity at 1.25 µM in test [1] (Well no.=2098) turned out to be 104%. For the same compound, the remaining activity at 3.75 µM in test [2] (Well no.=2098) turned out to be 102%.

For the compound `CN1C[C@H](C(=O)N[C@]2(C)O[C@@]3(O)[C@@H]4CCCN4C(=O)[C@H](Cc4ccccc4)N3C2=O)C[C@@H]2c3cccc4[nH]cc(c34)C[C@H]21` [Dihydroergotamine (mesylate)], the remaining activity at 1.25 µM in test [1] (Well no.=6947) turned out to be 92.6%. The remaining activity at 3.75 µM in test [2] (Well no.=6947) turned out to be 92.7%.

For `CN1C[C@H](C(=O)N[C@]2(C)O[C@@]3(O)[C@@H]4CCCN4C(=O)[C@H](Cc4ccccc4)N3C2=O)C[C@@H]2c3cccc4[nH]cc(c34)C[C@H]21` [Dihydroergotamine mesylate], in test [1] (Well no.=1701), the remaining activity at 1.25 µM was 98.4%. For the same compound, the remaining activity at 3.75 µM in test [2] (Well no.=1701) was 98.9%.

`CN1C[C@H](C(=O)N[C@]2(C)O[C@@]3(O)[C@@H]4CCCN4C(=O)[C@H](Cc4ccccc4)N3C2=O)C[C@@H]2c3cccc4[nH]cc(c34)C[C@H]21` [Dihydroergotamine methanesulfonate]: the remaining activity at 1.25 µM in test [1] (Well no.=543) was determined as 102%. For the same compound, the remaining activity at 3.75 µM in test [2] (Well no.=543) came to 104%.

`CC(C)[C@H]1CN[C@H](C(=O)O)[C@H]1CC(=O)O` [Dihydrokainic acid]: the remaining activity at 1.25 µM in test [1] (Well no.=635) is 93.4%. In addition, the remaining activity at 3.75 µM in test [2] (Well no.=635) was found to be 94%.

With `COC1=CC(=O)O[C@@H](CCc2ccc3c(c2)OCO3)C1` [Dihydromethysticin], the remaining activity at 1.25 µM in test [1] (Well no.=3303) was found to be 100%. Further, in test [2] (Well no.=3303), the remaining activity at 3.75 µM amounted to 102%.

With `C[C@@H]1O[C@@H](O[C@H]2C[C@@H](O)[C@]3(CO)[C@H]4[C@H](O)C[C@]5(C)[C@@H](C6COC(=O)C6)CC[C@]5(O)[C@@H]4CC[C@]3(O)C2)[C@H](O)[C@H](O)[C@H]1O` (stereo partly drawn) [Dihydroouabain], the remaining activity at 1.25 µM in test [1] (Well no.=539) turned out to be 91.5%. Besides, the remaining activity at 3.75 µM in test [2] (Well no.=539) is 93.8%.

As to `CCCCCCCCCCCCCCC[C@@H](O)[C@@H](N)CO` [Dihydrosphingosine], the remaining activity at 1.25 µM in test [1] (Well no.=4399) was 101%. Further, the remaining activity at 3.75 µM in test [2] (Well no.=4399) amounted to 96.6%.

As to `CC1CNC(=O)NC1=O` (stereo not drawn) [Dihydrothymine], the remaining activity at 1.25 µM in test [1] (Well no.=8392) was 100%. Further, the remaining activity at 3.75 µM in test [2] (Well no.=8392) worked out at 92.8%.

Turning to `c1ccc2c(Cc3c[nH]c4ccccc34)c[nH]c2c1` [Diindolylmethane], the remaining activity at 1.25 µM in test [1] (Well no.=3516) came to 102%; in test [1] (Well no.=4509), 88.9%. Also, the remaining activity at 3.75 µM in test [2] (Well no.=3516) was 104%; in test [2] (Well no.=4509), 92.4%.

Take `COc1cc(C(=O)OCCCN2CCCN(CCCOC(=O)c3cc(OC)c(OC)c(OC)c3)CC2)cc(OC)c1OC` [Dilazep hydrochloride]: the remaining activity at 1.25 µM in test [1] (Well no.=595) was determined as 103%. In test [2] (Well no.=595), the remaining activity at 3.75 µM came out at 106%.

As to `COc1cc(C(=O)OCCCN2CCCN(CCCOC(=O)c3cc(OC)c(OC)c(OC)c3)CC2)cc(OC)c1OC` [Dilazep], the remaining activity at 1.25 µM in test [1] (Well no.=1931) was found to be 100%. Moreover, the remaining activity at 3.75 µM in test [2] (Well no.=1931) was found to be 99.9%.

In the case of `COc1ccc([C@@H]2Sc3ccccc3N(CCN(C)C)C(=O)[C@@H]2OC(C)=O)cc1` [Diltiazem], the remaining activity at 1.25 µM in test [1] (Well no.=1713) came to 104%. For the same compound, in test [2] (Well no.=1713), the remaining activity at 3.75 µM worked out at 102%.

In the case of `Cc1ccc2c(c1)[C@]13CCCC[C@@H]1[C@H](C2)N(C)CC3` [Dimemorfan (phosphate)], the remaining activity at 1.25 µM in test [1] (Well no.=8523) was 106%. In test [2] (Well no.=8523), the remaining activity at 3.75 µM was found to be 103%.

As for `O=S(=O)(O)CCSSCCS(=O)(=O)O` [Dimesna], the remaining activity at 1.25 µM in test [1] (Well no.=5105) stood at 104%. Also, the remaining activity at 3.75 µM in test [2] (Well no.=5105) turned out to be 105%.

With `COC(=O)/C=C/C(=O)OC` [Dimethyl Fumarate], the remaining activity at 1.25 µM in test [1] (Well no.=5294) came to 93.6%. In addition, the remaining activity at 3.75 µM in test [2] (Well no.=5294) was 94.2%.

As to `CCc1cnn2c(NCc3ccc[n+]([O-])c3)cc(N3CCCC[C@H]3CCO)nc12` [Dinaciclib (SCH727965)], the remaining activity at 1.25 µM in test [1] (Well no.=5081) was determined as 99.7%. Moreover, in test [2] (Well no.=5081), the remaining activity at 3.75 µM worked out at 105%.

`CCCCC[C@H](O)/C=C/[C@@H]1[C@@H](C/C=C\CCCC(=O)O)[C@@H](O)C[C@H]1O` [Dinoprost (tromethamine salt)]: the remaining activity at 1.25 µM in test [1] (Well no.=6475) is 104%. Further, in test [2] (Well no.=6475), the remaining activity at 3.75 µM stood at 105%.

For `CCCCC[C@H](O)/C=C/[C@@H]1[C@@H](C/C=C\CCCC(=O)O)[C@@H](O)C[C@H]1O` [Dinoprost], in test [1] (Well no.=1667), the remaining activity at 1.25 µM stood at 99.9%. Further, the remaining activity at 3.75 µM in test [2] (Well no.=1667) worked out at 101%.

On to `C[C@@H]1CC[C@@]2(OC1)O[C@H]1C[C@H]3[C@@H]4CC=C5C[C@@H](O)CC[C@]5(C)[C@H]4CC[C@]3(C)[C@H]1[C@@H]2C` [Diosgenin], for which the remaining activity at 1.25 µM in test [1] (Well no.=5192) is 96.6%. Also, the remaining activity at 3.75 µM in test [2] (Well no.=5192) worked out at 94.9%.
